Reference: PubChem BioAssay AID330 (DTP/NCI, 2004)
Values joined by “and” are separate entries in the source; they are usually repeats but may differ in a detail not shown here. Identical values can stand only once. Toxic doses and inconclusive results are not listed. How the source made its calls: active means survival T/C of 150% or more; inactive means T/C below 125% in these data.

Test system: P388 leukemia ip, CD2F1 mice, survival T/C
Experiment: NCI In Vivo Anticancer Drug Screen. Data for tumor model P388 Leukemia (intraperitoneal) in CD2F1 (CDF1) mice
Settings: endpoint: median survival time, higher = longer survival
Summary of the method: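 Mice carrying the transplanted tumor received test compound or vehicle. Survival was recorded in each group, and the value is the treated-group measurement divided by that of the vehicle-treated control group.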

[1] = dose: 100.0 mg/kg/injection, schedule: Q01DX001 (ip), vehicle: saline with Tween-80
[2] = dose: 200.0 mg/kg/injection, schedule: Q01DX001 (ip), vehicle: saline with Tween-80
[3] = dose: 400.0 mg/kg/injection, schedule: Q01DX001 (ip), vehicle: saline with Tween-80
[4] = dose: 100.0 mg/kg/injection, schedule: Q01DX009 (ip), vehicle: saline with Tween-80
[5] = dose: 200.0 mg/kg/injection, schedule: Q01DX009 (ip), vehicle: saline with Tween-80
[6] = dose: 400.0 mg/kg/injection, schedule: Q01DX009 (ip), vehicle: saline with Tween-80
[7] = dose: 50.0 mg/kg/injection, schedule: Q01DX005 (ip), vehicle: Klucel (hydroxypropylcellulose) (HPC)
[8] = dose: 100.0 mg/kg/injection, schedule: Q01DX005 (ip), vehicle: Klucel (hydroxypropylcellulose) (HPC)
[9] = dose: 200.0 mg/kg/injection, schedule: Q01DX005 (ip), vehicle: Klucel (hydroxypropylcellulose) (HPC)
[10] = dose: 60.0 mg/kg/injection, schedule: Q01DX005 (ip), vehicle: saline with Tween-80
[11] = dose: 120.0 mg/kg/injection, schedule: Q01DX005 (ip), vehicle: saline with Tween-80
[12] = dose: 50.0 mg/kg/injection, schedule: Q01DX005 (ip), vehicle: saline with Tween-80
[13] = dose: 100.0 mg/kg/injection, schedule: Q01DX005 (ip), vehicle: saline with Tween-80
[14] = dose: 200.0 mg/kg/injection, schedule: Q01DX005 (ip), vehicle: saline with Tween-80
[15] = dose: 50.0 mg/kg/injection, schedule: Q01DX009 (ip), vehicle: Klucel (hydroxypropylcellulose) (HPC)
[16] = dose: 100.0 mg/kg/injection, schedule: Q01DX009 (ip), vehicle: Klucel (hydroxypropylcellulose) (HPC)
[17] = dose: 200.0 mg/kg/injection, schedule: Q01DX009 (ip), vehicle: Klucel (hydroxypropylcellulose) (HPC)
[18] = dose: 100.0 mg/kg/injection, schedule: Q01DX001 (ip), vehicle: saline
[19] = dose: 200.0 mg/kg/injection, schedule: Q01DX001 (ip), vehicle: saline
[20] = dose: 400.0 mg/kg/injection, schedule: Q01DX001 (ip), vehicle: saline

Measured: T/C

Cc1ccc(NC(=O)CCC(=O)NS(C)(=O)=O)cc1
inactive: [1] 94 % of control | [2] 94 % of control | [3] 95 % of control

C/C(=C1/c2ccccc2-c2n[nH]c(C)c21)S(=O)(=O)O
inactive: [4] 109 % of control | [5] 109 % of control | [6] 100 % of control

CCc1ccc(/C=C/c2ccc(O)c3ncccc23)[n+](C)c1
inactive: dose: 4.0 mg/kg/injection, schedule: Q04DX003 (ip), vehicle: saline 100 % of control | dose: 8.0 mg/kg/injection, schedule: Q04DX003 (ip), vehicle: saline 104 % of control | dose: 16.0 mg/kg/injection, schedule: Q04DX003 (ip), vehicle: saline 118 % of control

C/C=C1\C(=O)OC23C=CC4C(C(=O)OC)C(O)OC(OC12)C43 (centres undefined)
inactive: dose: 0.12 mg/kg/injection, schedule: Q01DX009 (ip), vehicle: saline 89 % of control | dose: 0.25 mg/kg/injection, schedule: Q01DX009 (ip), vehicle: Klucel (hydroxypropylcellulose) (HPC) 100 % of control | dose: 0.25 mg/kg/injection, schedule: Q01DX009 (ip), vehicle: saline 104 % of control | dose: 0.5 mg/kg/injection, schedule: Q01DX009 (ip), vehicle: Klucel (hydroxypropylcellulose) (HPC) 99 % of control | dose: 0.5 mg/kg/injection, schedule: Q01DX009 (ip), vehicle: saline 106 % of control | dose: 1.0 mg/kg/injection, schedule: Q01DX009 (ip), vehicle: Klucel (hydroxypropylcellulose) (HPC) 98 % of control | dose: 1.0 mg/kg/injection, schedule: Q01DX009 (ip), vehicle: saline with Tween-80 106 % of control | dose: 1.0 mg/kg/injection, schedule: Q01DX009 (ip), vehicle: saline 101 % of control | dose: 2.0 mg/kg/injection, schedule: Q01DX009 (ip), vehicle: Klucel (hydroxypropylcellulose) (HPC) 98 % of control | dose: 2.0 mg/kg/injection, schedule: Q01DX009 (ip), vehicle: saline with Tween-80 110 % of control | dose: 4.0 mg/kg/injection, schedule: Q01DX009 (ip), vehicle: saline with Tween-80 107 % of control

CC[C@H](CC[C@@H](C)C1CC[C@H]2[C@@H]3CC=C4C[C@@H](OP(=O)(N5CC5)N5CC5)CC[C@]4(C)[C@H]3CC[C@]12C)C(C)C (some centres undefined)
active: [4] 152 % of control | [5] 163 % of control and 171 % of control
inactive: [6] 98 % of control

COC1OC(COC(=O)c2ccccc2)C(=O)C(OC(=O)c2ccccc2)C1N(O)C1C(COC(=O)c2ccccc2)OC2OC(C)(C)OC21 (centres undefined)
inactive: [7] 101 % of control | [8] 105 % of control | [9] 100 % of control

CC1CN=C(c2ccc(NC(=O)c3ccc(C(=O)Nc4ccc(C5=NCC(C)N5)cc4)c(N)c3)cc2)N1 (centres undefined)
active: dose: 2.5 mg/kg/injection, schedule: Q01DX009 (ip), vehicle: saline with Tween-80 195 % of control | dose: 5.0 mg/kg/injection, schedule: Q01DX009 (ip), vehicle: saline with Tween-80 255 % of control | dose: 10.0 mg/kg/injection, schedule: Q01DX009 (ip), vehicle: saline with Tween-80 170 % of control | dose: 10.0 mg/kg/injection, schedule: Q04DX003 (ip), vehicle: saline with Tween-80 159 % of control
inactive: dose: 0.5 mg/kg/injection, schedule: Q04DX003 (ip), vehicle: saline 100 % of control | dose: 1.0 mg/kg/injection, schedule: Q04DX003 (ip), vehicle: saline 110 % of control | dose: 2.0 mg/kg/injection, schedule: Q04DX003 (ip), vehicle: saline 120 % of control

CC(N)(CCSCP(=O)(O)O)C(=O)O (centres undefined)
inactive: [10] 99 % of control | [11] 91 % of control

CN1C(C)(C)CC2=C(c3ccccc3)c3ccccc3C2C1(C)C (centres undefined)
inactive: [12] 106 % of control | [13] 100 % of control | [14] 102 % of control

CCCCCCCCCCCCCCCC(=O)OCC(=O)OC
inactive: [15] 101 % of control | [16] 93 % of control | [17] 93 % of control

COc1cc(-c2nn(CN3CCOCC3)c(=S)n2C)cc(OC)c1OC
inactive: [7] 103 % of control | [8] 103 % of control | [9] 100 % of control

COc1ccc2c(c1)O[C@H]1c3ccc(O)cc3OC[C@@H]21
inactive: [12] 100 % of control | [13] 91 % of control | [14] 91 % of control

COC1/C=C\C=C(/C)C(=O)NC2=CC(=O)C=C(C2=O)C(OC)C(C)CC(OC)C(OC)C(C)/C=C(/C)C1OC(N)=O (centres undefined)
inactive: dose: 3.0 mg/kg/injection, schedule: Q01DX009 (ip), vehicle: Klucel (hydroxypropylcellulose) (HPC) 92 % of control | dose: 6.0 mg/kg/injection, schedule: Q01DX009 (ip), vehicle: Klucel (hydroxypropylcellulose) (HPC) 101 % of control

CC(C)(C)NC(=O)c1ccc2c(n1)C(=O)N(C(C)(C)C)C2=S
inactive: [1] 91 % of control | [2] 94 % of control | [3] 100 % of control

C/C(=N\NC(=S)N1CCC(c2ccccc2)CC1)c1ncccn1
inactive: dose: 12.5 mg/kg/injection, schedule: Q01DX005 (ip), vehicle: saline with Tween-80 110 % of control
active: [12] 169 % of control

CC(C)c1cccc(C(C)C)c1NC(=O)N1CCCCC1
inactive: [10] 99 % of control | [11] 93 % of control | dose: 240.0 mg/kg/injection, schedule: Q01DX005 (ip), vehicle: saline with Tween-80 100 % of control

COCc1cccc2ccnc(COC)c12
inactive: [18] 100 % of control | [19] 102 % of control | [20] 103 % of control

CCCC(=O)Nc1cc2c3c(c1)CCCN3CCC2
inactive: dose: 12.5 mg/kg/injection, schedule: Q01DX009 (ip), vehicle: saline with Tween-80 100 % of control | dose: 25.0 mg/kg/injection, schedule: Q01DX009 (ip), vehicle: saline with Tween-80 95 % of control

CN(C)C(=O)Cn1cc([N+](=O)[O-])sc1=NC(=O)c1ccncc1
inactive: [18] 93 % of control | [19] 109 % of control | [20] 105 % of control

O=NN(CCCl)C(=O)Nc1c[nH]c2ccccc12
active: dose: 25.0 mg/kg/injection, schedule: Q01DX009 (ip), vehicle: Klucel (hydroxypropylcellulose) (HPC) 157 % of control | [15] 159 % of control and 166 % of control | [16] 166 % of control and 176 % of control | [17] 166 % of control and 175 % of control | dose: 400.0 mg/kg/injection, schedule: Q01DX009 (ip), vehicle: Klucel (hydroxypropylcellulose) (HPC) 166 % of control and 176 % of control

ClCCN(CCCCCCN(CCCl)c1ccccc1)c1ccccc1
inactive: [15] 109 % of control | [16] 109 % of control | [17] 108 % of control

CCB1OCC(C2OC(=O)C3OB(CC)OC32)O1 (centres undefined)
inactive: dose: 50.0 mg/kg/injection, schedule: Q01DX005 (ip), vehicle: saline + Tween-80 + alcohol 101 % of control | dose: 100.0 mg/kg/injection, schedule: Q01DX005 (ip), vehicle: saline + Tween-80 + alcohol 101 % of control | dose: 200.0 mg/kg/injection, schedule: Q01DX005 (ip), vehicle: saline + Tween-80 + alcohol 95 % of control

CCC(c1ccc(OCC(=O)N2CC2)cc1)C(CC)c1ccc(OCC(=O)N2CC2)cc1 (centres undefined)
inactive: dose: 100.0 mg/kg/injection, schedule: Q04DX003 (ip), vehicle: suspension in saline 99 % of control | dose: 200.0 mg/kg/injection, schedule: Q04DX003 (ip), vehicle: suspension in saline 98 % of control | dose: 400.0 mg/kg/injection, schedule: Q04DX003 (ip), vehicle: suspension in saline 100 % of control

Oc1ccc(C(O)C2CCCCN2)cc1O (centres undefined)
inactive: dose: 25.0 mg/kg/injection, schedule: Q01DX009 (ip), vehicle: saline 99 % of control | dose: 50.0 mg/kg/injection, schedule: Q01DX009 (ip), vehicle: saline 108 % of control | dose: 100.0 mg/kg/injection, schedule: Q01DX009 (ip), vehicle: saline 103 % of control | dose: 200.0 mg/kg/injection, schedule: Q01DX009 (ip), vehicle: saline 108 % of control

O=C1c2ccccc2C(=O)c2c(NCCC3CCCN4CCCCC34)cccc21 (centres undefined)
inactive: [7] 94 % of control | [8] 97 % of control | [9] 96 % of control

CN(C)c1ccc2c(c1)C(=O)N(OS(C)(=O)=O)C2=O
inactive: dose: 25.0 mg/kg/injection, schedule: Q01DX005 (ip), vehicle: saline with Tween-80 111 % of control | [12] 108 % of control and 117 % of control | [13] 106 % of control
